Among the test systems are CAKI-1 renal; HCC-2998 colon; NCI-H522 lung; NCI/ADR-RES ovarian; OVCAR-3 ovarian; SK-OV-3 ovarian; SNB-75 CNS; UACC-257 melanoma.
Holding throughout (assay): inhibition of tumour cell growth, NCI panel, 48 h

Values joined by “and” are separate entries in the source; they are usually repeats but may differ in a detail not shown here. Equal entries are not always repeated.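 1) Cells in 96-well plates. 2) Compound, 48 h, 5 concentrations. 3) Linear interpolation between surrounding doses. 4) Unreached endpoint = highest concentration. GI50 = concentration required for 50% inhibition of growth. TGI: total growth inhibition.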 Bounds are passed on as bounds.

On to `COc1cc(C(=O)N/N=C/c2cccc([N+](=O)[O-])c2)cc(OC)c1OC`, for which the GI50 in the assay with CAKI-1 renal is 2.53 µM; in the assay with HCC-2998 colon, 7.95 µM; in the assay on NCI-H522 lung, 2.45 µM; with NCI/ADR-RES ovarian, 3.55 µM; in the assay on OVCAR-3 ovarian, 2.39 µM; with SK-OV-3 ovarian it was 31.9 µM. Moreover, the GI50 was 6.92 µM in the assay with SNB-75 CNS and 5.11 µM in the assay on UACC-257 melanoma. Moreover, the TGI is 11.9 µM in the assay on CAKI-1 renal; 59.5 µM in the assay on HCC-2998 colon; 5.74 µM in the assay on NCI-H522 lung; 59.2 µM with NCI/ADR-RES ovarian; 6.64 µM in the assay with OVCAR-3 ovarian; greater than 100 µM with SK-OV-3 ovarian. For the same molecule, the TGI in the assay with SNB-75 CNS was 56.1 µM; in the assay on UACC-257 melanoma it was greater than 100 µM.
Regarding `CC(C)n1nc(C#Cc2cccc(NC(=O)c3cccc(C(F)(F)F)c3)c2)c2c(N)ncnc21`, the GI50 is 2.06 µM in the assay with CAKI-1 renal; 2.36 µM in the assay on HCC-2998 colon; 1.83 µM in the assay with NCI-H522 lung; 2.83 µM with NCI/ADR-RES ovarian; 2.96 µM in the assay on OVCAR-3 ovarian; 1.98 µM with SK-OV-3 ovarian. In addition, the GI50 in the assay with SNB-75 CNS is 1.75 µM; in the assay with UACC-257 melanoma, 0.538 µM. Besides, the TGI was 12.8 µM with CAKI-1 renal; 75.7 µM in the assay on HCC-2998 colon; 9.11 µM in the assay with NCI-H522 lung; greater than 100 µM in the assay with NCI/ADR-RES ovarian; 28.9 µM in the assay with OVCAR-3 ovarian; 4.55 µM in the assay with SK-OV-3 ovarian. Further, the results for the TGI in the assay on SNB-75 CNS and in the assay with UACC-257 melanoma were 3.89 µM and 5.68 µM, respectively.
Take `C#Cc1ccc(-n2c(/C=C/c3cc(OC)c(OC)c(OC)c3)nc3ncccc3c2=O)cc1`: the GI50 in the assay with CAKI-1 renal is 6.07 µM; with HCC-2998 colon, 27.5 µM; in the assay on NCI-H522 lung, 2.33 µM; in the assay with NCI/ADR-RES ovarian it was 3.61 µM; in the assay on OVCAR-3 ovarian, 2.33 µM; in the assay with SK-OV-3 ovarian it was 5.33 µM. Moreover, the values for the GI50 with SNB-75 CNS and in the assay with UACC-257 melanoma were 3.88 µM and 9.74 µM, respectively. Moreover, the TGI was greater than 100 µM in the assay with CAKI-1 renal; greater than 100 µM in the assay on HCC-2998 colon; 6.29 µM in the assay on NCI-H522 lung; 34.5 µM in the assay on NCI/ADR-RES ovarian; 6.42 µM with OVCAR-3 ovarian; 77.7 µM with SK-OV-3 ovarian. Besides, the TGI in the assay on SNB-75 CNS and in the assay with UACC-257 melanoma was greater than 100 µM each time.
With `O=c1[nH]c2cc(O)ccc2n2cc3c(F)cccc3c12`, the GI50 was 0.903 µM in the assay with CAKI-1 renal; greater than 24.3 µM with HCC-2998 colon; 0.785 µM in the assay with NCI-H522 lung; 0.698 µM with NCI/ADR-RES ovarian; 5.77 µM in the assay with OVCAR-3 ovarian; 1.65 µM in the assay on SK-OV-3 ovarian. The GI50 with SNB-75 CNS was 1.76 µM; in the assay with UACC-257 melanoma, 31.9 µM. Besides, the TGI in the assay on CAKI-1 renal, with HCC-2998 colon, with NCI-H522 lung, in the assay on NCI/ADR-RES ovarian, in the assay with OVCAR-3 ovarian and with SK-OV-3 ovarian was greater than 100 µM in each case. Also, the TGI in the assay on SNB-75 CNS and in the assay with UACC-257 melanoma was greater than 100 µM in each case.
Turning to `COc1cc(OC)c(/C=C/S(=O)(=O)Cc2ccc(OC)c(NCC(=O)O)c2)c(OC)c1`, the TGI in the assay with CAKI-1 renal is greater than 100 µM; with HCC-2998 colon, greater than 100 µM; in the assay with NCI-H522 lung it was 0.213 µM and 0.0608 µM; in the assay with NCI/ADR-RES ovarian, greater than 3.12 µM; in the assay with OVCAR-3 ovarian, 0.533 µM; with SK-OV-3 ovarian, greater than 100 µM. Also, the TGI in the assay with SNB-75 CNS and in the assay on UACC-257 melanoma was greater than 100 µM each time. The GI50 in the assay on HCC-2998 colon is 0.247 µM and 0.237 µM; in the assay on NCI-H522 lung it was 0.0374 µM and 0.0205 µM; with NCI/ADR-RES ovarian it was 0.0678 µM and 0.0332 µM; with OVCAR-3 ovarian it was 0.0935 µM and 0.0702 µM; in the assay with SK-OV-3 ovarian it was 0.442 µM and 0.099 µM; in the assay on SNB-75 CNS, 0.0682 µM and 0.0492 µM.
In the case of `C[C@H](NC(=O)CCC(F)(F)F)C(=O)N[C@@H]1C(=O)N(CCO)c2ncccc2-c2ccccc21`, the GI50 with CAKI-1 renal, in the assay with HCC-2998 colon, in the assay on NCI-H522 lung, with NCI/ADR-RES ovarian, in the assay on OVCAR-3 ovarian and in the assay with SK-OV-3 ovarian was greater than 100 µM each time. The GI50 in the assay with SNB-75 CNS was greater than 100 µM. In addition, the TGI with CAKI-1 renal, in the assay with HCC-2998 colon, in the assay with NCI-H522 lung, in the assay with NCI/ADR-RES ovarian, in the assay on OVCAR-3 ovarian and in the assay with SK-OV-3 ovarian was greater than 100 µM in each case. This molecule showed a TGI in the assay on SNB-75 CNS greater than 100 µM.
For `CC(C)C[C@H](NC(=O)[C@@H](O)[C@H](N)Cc1ccccc1)C(=O)O`, the TGI in the assay on CAKI-1 renal, in the assay on HCC-2998 colon, with NCI-H522 lung, with NCI/ADR-RES ovarian, in the assay with OVCAR-3 ovarian and in the assay with SK-OV-3 ovarian was greater than 100 µM each time. Moreover, the TGI in the assay on SNB-75 CNS and in the assay with UACC-257 melanoma was greater than 100 µM each time. Besides, the GI50 in the assay with NCI-H522 lung was greater than 100 µM.
Turning to `Nc1ncnc2c1ncn2Cc1ccc(C23CC4CC(CC(C4)C2)C3)c(O)c1`, the GI50 is 8.14 µM with CAKI-1 renal; 12.4 µM in the assay with HCC-2998 colon; 25.6 µM in the assay on NCI-H522 lung; greater than 100 µM in the assay on NCI/ADR-RES ovarian; 17.2 µM with OVCAR-3 ovarian; 36.3 µM with SK-OV-3 ovarian. Moreover, the GI50 in the assay with SNB-75 CNS was 13.4 µM; with UACC-257 melanoma, 3.39 µM. Further, the TGI in the assay with CAKI-1 renal is 37.5 µM; in the assay with HCC-2998 colon it was 82.1 µM; in the assay with NCI-H522 lung it was greater than 100 µM; with NCI/ADR-RES ovarian, greater than 100 µM; in the assay with OVCAR-3 ovarian, greater than 100 µM; in the assay on SK-OV-3 ovarian, greater than 100 µM. In addition, the values for the TGI in the assay with SNB-75 CNS and in the assay on UACC-257 melanoma were 40 µM and 61.2 µM, respectively.
As for `CCN(CC)CCOc1ccc(C2=C(c3ccccc3)CCc3cc(OC)ccc32)cc1`, the GI50 with CAKI-1 renal is 2.18 µM; with HCC-2998 colon, 1.39 µM; in the assay with NCI-H522 lung it was 3.03 µM; in the assay on NCI/ADR-RES ovarian it was 3.17 µM; with OVCAR-3 ovarian, 5.64 µM; in the assay on SK-OV-3 ovarian it was 3.22 µM. Further, the GI50 in the assay on SNB-75 CNS was 1.4 µM; in the assay on UACC-257 melanoma it was 1.81 µM. For the same molecule, the TGI amounted to 5.86 µM in the assay with CAKI-1 renal; 2.81 µM in the assay with HCC-2998 colon; 9.25 µM in the assay with NCI-H522 lung; 12.7 µM in the assay on NCI/ADR-RES ovarian; 15.7 µM in the assay with OVCAR-3 ovarian; 13.6 µM in the assay on SK-OV-3 ovarian. The TGI with SNB-75 CNS stood at 4.62 µM; in the assay with UACC-257 melanoma, 3.6 µM.

(Values after PubChem BioAssay (NCI).)
